Test results as given in ChEMBL document CHEMBL1150413, “A series of potent and selective, triazolylphenyl-based histone deacetylases inhibitors with activity against pancreatic cancer cells and Plasmodium falciparum” (J Med Chem, 2008).

Experiments:
Histone deacetylase 2 = Histone deacetylase 2 (Homo sapiens, UniProt Q92769)
Histone deacetylase 3 = Histone deacetylase 3 (Homo sapiens, UniProt O15379)
[1] = Selectivity for HDAC10 over HDAC1
BXPC-3 = experiment: Cytotoxicity against human BxPC3 cells after 72 hrs by MTT assay; format: functional, cell-based; details: BXPC-3, 72 h
[2] = Cytotoxicity against human Hup T3 cells after 72 hrs by MTT assay; format: functional, cell-based; details: HuP-T3, 72 h
MIA PaCa-2 = experiment: Cytotoxicity against human Mia Paca2 cells after 72 hrs by MTT assay; format: functional, cell-based; details: MIA PaCa-2, 72 h
[3] = Cytotoxicity against human Panc 04.03 cells after 72 hrs by MTT assay; format: functional, cell-based; details: Panc 04.03, 72 h
[4] = Cytotoxicity against human SU 86.86 cells after 72 hrs by MTT assay; format: functional, cell-based; details: SU.86.86, 72 h
Plasmodium falciparum [5] = experiment: Antimalarial activity against Plasmodium falciparum D6 by hypoxanthine uptake; format: functional, organism-based
Plasmodium falciparum [6] = experiment: Antimalarial activity against Plasmodium falciparum W2 by hypoxanthine uptake; format: functional, organism-based
Plasmodium falciparum [7] = experiment: Antimalarial activity against Plasmodium falciparum TM90C2A by hypoxanthine uptake; format: functional, organism-based
Histone deacetylase 1 = Histone deacetylase 1 (Homo sapiens, UniProt Q13547)
Histone deacetylase 8 = target: T1, Histone deacetylase 8 (Homo sapiens, UniProt Q9BY41)
T1 sequence (Q9BY41 whole entry): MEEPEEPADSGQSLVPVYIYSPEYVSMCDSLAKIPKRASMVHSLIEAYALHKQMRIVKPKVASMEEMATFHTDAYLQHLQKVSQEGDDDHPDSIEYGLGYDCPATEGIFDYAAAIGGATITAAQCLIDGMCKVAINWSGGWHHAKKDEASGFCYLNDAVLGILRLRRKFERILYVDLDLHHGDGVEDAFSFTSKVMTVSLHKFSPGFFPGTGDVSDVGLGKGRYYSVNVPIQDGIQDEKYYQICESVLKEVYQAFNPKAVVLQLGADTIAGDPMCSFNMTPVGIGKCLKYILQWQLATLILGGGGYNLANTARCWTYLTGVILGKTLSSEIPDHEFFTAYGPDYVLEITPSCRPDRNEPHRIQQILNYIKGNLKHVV

[8] = target: T2, Polyamine deacetylase HDAC10 (Homo sapiens, UniProt Q969S8)
T2 sequence (Q969S8 whole entry): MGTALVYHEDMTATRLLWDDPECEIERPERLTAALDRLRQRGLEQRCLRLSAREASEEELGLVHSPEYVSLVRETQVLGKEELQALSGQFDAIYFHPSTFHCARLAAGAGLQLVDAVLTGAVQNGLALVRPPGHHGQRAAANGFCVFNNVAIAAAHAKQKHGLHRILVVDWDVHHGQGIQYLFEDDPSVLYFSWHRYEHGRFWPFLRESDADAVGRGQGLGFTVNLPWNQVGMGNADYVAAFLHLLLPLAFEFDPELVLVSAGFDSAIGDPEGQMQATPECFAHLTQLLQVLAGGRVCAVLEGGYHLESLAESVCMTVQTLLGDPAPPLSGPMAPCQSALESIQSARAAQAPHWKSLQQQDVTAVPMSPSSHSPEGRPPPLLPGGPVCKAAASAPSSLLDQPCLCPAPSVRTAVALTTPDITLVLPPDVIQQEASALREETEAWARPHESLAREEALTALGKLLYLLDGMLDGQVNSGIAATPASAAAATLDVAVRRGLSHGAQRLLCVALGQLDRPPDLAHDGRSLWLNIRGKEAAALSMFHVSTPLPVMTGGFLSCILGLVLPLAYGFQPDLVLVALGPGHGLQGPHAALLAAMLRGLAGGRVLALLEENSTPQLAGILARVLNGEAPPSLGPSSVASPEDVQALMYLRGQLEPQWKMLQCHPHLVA

[9] = target: T3, Protein deacetylase HDAC6 (Homo sapiens, UniProt Q9UBN7)
T3 sequence (Q9UBN7 whole entry): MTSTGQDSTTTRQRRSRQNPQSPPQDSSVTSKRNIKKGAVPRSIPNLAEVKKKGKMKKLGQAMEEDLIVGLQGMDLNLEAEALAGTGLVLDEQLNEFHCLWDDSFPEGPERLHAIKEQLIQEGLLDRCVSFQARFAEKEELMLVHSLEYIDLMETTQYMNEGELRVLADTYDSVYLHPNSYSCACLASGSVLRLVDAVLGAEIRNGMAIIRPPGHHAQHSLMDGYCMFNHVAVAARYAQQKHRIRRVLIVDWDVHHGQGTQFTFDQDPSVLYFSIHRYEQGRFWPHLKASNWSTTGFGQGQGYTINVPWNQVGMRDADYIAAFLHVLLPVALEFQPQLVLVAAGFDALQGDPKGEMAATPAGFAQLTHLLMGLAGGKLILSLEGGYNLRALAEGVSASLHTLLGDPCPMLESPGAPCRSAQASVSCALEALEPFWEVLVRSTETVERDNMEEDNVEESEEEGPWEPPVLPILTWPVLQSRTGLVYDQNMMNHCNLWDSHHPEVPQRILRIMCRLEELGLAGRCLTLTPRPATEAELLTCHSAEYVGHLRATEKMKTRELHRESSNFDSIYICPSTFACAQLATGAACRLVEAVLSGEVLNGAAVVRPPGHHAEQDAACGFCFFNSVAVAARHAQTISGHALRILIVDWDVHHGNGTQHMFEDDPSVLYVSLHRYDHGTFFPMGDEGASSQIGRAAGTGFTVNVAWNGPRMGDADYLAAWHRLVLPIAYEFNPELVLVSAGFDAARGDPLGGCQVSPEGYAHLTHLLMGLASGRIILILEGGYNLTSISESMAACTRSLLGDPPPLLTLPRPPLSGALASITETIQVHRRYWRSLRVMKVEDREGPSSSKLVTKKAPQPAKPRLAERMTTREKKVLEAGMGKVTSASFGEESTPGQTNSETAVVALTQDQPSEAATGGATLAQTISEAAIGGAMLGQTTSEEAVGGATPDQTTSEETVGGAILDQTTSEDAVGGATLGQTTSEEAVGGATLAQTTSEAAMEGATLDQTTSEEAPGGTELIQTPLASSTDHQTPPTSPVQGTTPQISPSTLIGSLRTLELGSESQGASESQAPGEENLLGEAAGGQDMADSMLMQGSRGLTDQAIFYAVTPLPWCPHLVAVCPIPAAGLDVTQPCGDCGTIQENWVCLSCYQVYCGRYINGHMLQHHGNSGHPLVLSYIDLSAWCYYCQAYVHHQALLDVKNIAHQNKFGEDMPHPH

Plasmodium falciparum [10] = experiment: microbe, parasite or virus in culture; details: TM91C235
Description: Antimalarial activity against Plasmodium falciparum TM91C235 by hypoxanthine uptake

Sequence of Histone deacetylase 2 (Q92769 whole entry): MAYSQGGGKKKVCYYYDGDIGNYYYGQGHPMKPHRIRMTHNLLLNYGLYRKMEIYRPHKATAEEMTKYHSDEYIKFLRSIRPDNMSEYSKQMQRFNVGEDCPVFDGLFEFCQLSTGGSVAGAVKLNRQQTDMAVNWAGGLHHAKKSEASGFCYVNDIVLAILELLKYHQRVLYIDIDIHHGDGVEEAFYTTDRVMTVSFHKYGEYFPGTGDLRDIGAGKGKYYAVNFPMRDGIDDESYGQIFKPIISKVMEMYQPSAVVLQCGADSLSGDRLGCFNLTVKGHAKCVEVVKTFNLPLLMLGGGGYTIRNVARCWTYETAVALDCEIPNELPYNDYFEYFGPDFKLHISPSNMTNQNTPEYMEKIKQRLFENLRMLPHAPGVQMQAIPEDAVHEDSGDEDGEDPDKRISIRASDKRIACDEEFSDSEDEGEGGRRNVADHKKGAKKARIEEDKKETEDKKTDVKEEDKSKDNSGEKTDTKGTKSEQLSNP
Sequence of Histone deacetylase 1 (Q13547 whole entry): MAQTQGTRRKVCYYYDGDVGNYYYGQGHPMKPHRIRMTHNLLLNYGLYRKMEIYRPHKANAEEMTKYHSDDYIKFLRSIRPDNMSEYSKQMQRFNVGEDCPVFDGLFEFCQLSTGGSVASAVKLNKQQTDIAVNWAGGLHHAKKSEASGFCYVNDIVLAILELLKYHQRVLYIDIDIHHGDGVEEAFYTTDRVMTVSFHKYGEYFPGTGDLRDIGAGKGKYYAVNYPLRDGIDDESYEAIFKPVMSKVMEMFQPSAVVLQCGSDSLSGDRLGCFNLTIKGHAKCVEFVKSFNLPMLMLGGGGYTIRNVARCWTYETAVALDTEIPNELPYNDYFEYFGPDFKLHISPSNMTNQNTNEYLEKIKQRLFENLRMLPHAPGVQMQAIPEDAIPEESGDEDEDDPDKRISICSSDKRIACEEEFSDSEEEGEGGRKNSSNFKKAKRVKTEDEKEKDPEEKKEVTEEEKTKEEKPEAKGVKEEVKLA
Sequence of Histone deacetylase 3 (O15379 whole entry): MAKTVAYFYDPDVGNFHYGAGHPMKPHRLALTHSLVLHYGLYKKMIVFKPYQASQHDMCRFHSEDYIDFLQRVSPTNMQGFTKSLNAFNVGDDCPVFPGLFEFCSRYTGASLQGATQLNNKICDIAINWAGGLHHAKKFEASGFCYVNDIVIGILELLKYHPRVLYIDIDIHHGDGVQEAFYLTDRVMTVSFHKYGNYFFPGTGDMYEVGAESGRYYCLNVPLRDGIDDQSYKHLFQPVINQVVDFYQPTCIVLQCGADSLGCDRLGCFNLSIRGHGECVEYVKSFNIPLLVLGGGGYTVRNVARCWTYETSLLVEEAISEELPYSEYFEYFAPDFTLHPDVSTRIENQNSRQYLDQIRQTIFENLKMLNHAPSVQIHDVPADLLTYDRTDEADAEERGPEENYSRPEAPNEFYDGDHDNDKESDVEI

SMILES	IC50 (Histone deacetylase 2) [nM]	IC50 (Histone deacetylase 3) [nM]	Ratio IC50 [1]	IC50 (BXPC-3) [nM]	IC50 [2] [nM]	IC50 (MIA PaCa-2) [nM]	IC50 [3] [nM]	IC50 [4] [nM]	IC50 (Plasmodium falciparum [5]) [nM]	IC50 (Plasmodium falciparum [6]) [nM]	IC50 (Plasmodium falciparum [7]) [nM]	IC50 (Histone deacetylase 1) [nM]	IC50 (Histone deacetylase 8) [nM]	IC50 [8] [nM]	IC50 [9] [nM]	IC50 (Plasmodium falciparum [10]) [nM]
O=C(CCCCCCC(=O)Nc1cccc(-c2cnnn2Cc2ccc(F)cc2)c1)NO	124	5.8	1.5	11000	5000	2000	9000	8000	300	590	210	25.9	529	17.6	3.8	460
O=C(CCCCCCC(=O)Nc1cccc(-c2cnnn2Cc2ccccc2)c1)NO	112	4.5	1	12000	2000	1000	4000	7000	210	600	150	18.6	433	19.2	3.3	370
O=C(CCCCCCC(=O)Nc1ccc(-c2cn(Cc3ccc(F)cc3)nn2)cc1)NO	294	13.7	0.9	22000	4000	< 500	3000	11000	–	–	–	97.8	797	112	1.9	–
O=C(CCCCCCC(=O)Nc1ccccc1)NO [VORINOSTAT]	–	–	–	–	800	–	–	–	–	–	–	–	–	–	–	–
O=C(CCCCCCC(=O)Nc1cccc(-c2cn(Cc3ccccc3)nn2)c1)NO	43	7.9	0.8	3000	1000	< 500	2000	2000	140	160	190	14.5	1990	18.5	3.1	220
O=C(CCCCCCC(=O)Nc1ccc(-c2cnnn2-c2ccccc2)cc1)NO	146	12	1.3	13000	10000	8000	8000	11000	350	620	170	70.5	518	55.7	3.5	470
O=C(CCCCCCC(=O)Nc1cccc(-c2cnnn2-c2ccccc2)c1)NO	167	7.7	1.4	10000	8000	3000	2000	4000	320	730	330	33.4	942	24.5	7.5	500
